Where two headings read alike, the source gives them in different places.
Test system: iCell cardiomyocytes (human iPSC-derived cardiomyocytes)
Test: Intracellular Ca2+ flux / beating parameters in iCell cardiomyocytes (FLIPR tetra), 90 min or 24 h
Format: cell-based
Settings: Homo sapiens, Cardiomyocyte, 0.00 µM = 100.00; for activity at 0.1 µM: 0.10 µM
Method in brief: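 Gelatin-plated iCell cardiomyocytes (5,000/well) were dye-loaded for 2 h at 37 °C, then exposed for 90 min or 24 h to PCBs/metabolites (5× plates at 0.05–500 µM; 0.5% DMSO final) in triplicate. Ca2+ flux was read for 100 s at 8 Hz and 37 °C. Peak height, frequency, spacing CV and decay/rise ratio were vehicle-normalized and fitted with a four-parameter logistic model, with POD set at 1 SD of vehicle.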

[1] = 1.5 h, 90min, read-out: cm.amp.avg.90min
[2] = 1.5 h, 90min, read-out: cm.amp.cv.90min
[3] = 1.5 h, 90min, read-out: cm.bpm.90min
[4] = 1.5 h, 90min, read-out: cm.decay.rise.90min
[5] = 1.5 h, 90min, read-out: cm.spacing.cv.90min
[6] = 24 h, 24hrs, read-out: cm.amp.avg.24hrs
[7] = 24 h, 24hrs, read-out: cm.amp.cv.24hrs
[8] = 24 h, 24hrs, read-out: cm.bpm.24hrs
[9] = 24 h, 24hrs, read-out: cm.decay.rise.24hrs
[10] = 24 h, 24hrs, read-out: cm.spacing.cv.24hrs

Clc1ccc(-c2cc(Cl)c(Cl)c(Cl)c2)cc1Cl [PCB126]
activity at 0.01 µM [1]: 100% | activity at 0.01 µM [2]: 110% | activity at 0.01 µM [3]: 107% | activity at 0.01 µM [4]: 102% | activity at 0.01 µM [5]: 135% | activity at 0.1 µM [1]: 102% | activity at 0.1 µM [2]: 139% | activity at 0.1 µM [3]: 97.8% | activity at 0.1 µM [4]: 99.8% | activity at 0.1 µM [5]: 119% | activity at 1 µM [1]: 102% | activity at 1 µM [2]: 114% | activity at 1 µM [3]: 105% | activity at 1 µM [4]: 96% | activity at 1 µM [5]: 115% | activity at 10 µM [1]: 90.3% | activity at 10 µM [2]: 363% | activity at 10 µM [3]: 128% | activity at 10 µM [4]: 83% | activity at 100 µM [1]: 117% | activity at 100 µM [2]: 120% | activity at 100 µM [3]: 135% | activity at 100 µM [4]: 86.2% | activity at 100 µM [5]: 106% | activity at 0.01 µM [6]: 73.3% | activity at 0.01 µM [7]: 143% | activity at 0.01 µM [8]: 100% | activity at 0.01 µM [9]: 101% | activity at 0.01 µM [10]: 122% | activity at 0.1 µM [6]: 79.8% | activity at 0.1 µM [7]: 120% | activity at 0.1 µM [8]: 100% | activity at 0.1 µM [9]: 109% | activity at 0.1 µM [10]: 117% | activity at 1 µM [6]: 72.2% | activity at 1 µM [7]: 128% | activity at 1 µM [8]: 104% | activity at 1 µM [9]: 97.6% | activity at 1 µM [10]: 113% | activity at 10 µM [6]: 78.8% | activity at 10 µM [7]: 38.8% | activity at 10 µM [8]: 68.7% | activity at 10 µM [9]: 50% | activity at 10 µM [10]: 66.1% | activity at 100 µM [6]: 20.9% | activity at 100 µM [7]: 121% | activity at 100 µM [8]: 70.6% | activity at 100 µM [9]: 29.1% | activity at 100 µM [10]: 81%
